Experimental data taken from US8575163B2, “Pyrrolopyridinylpyrimidin-2-ylamine derivatives” (Merck Patent GmbH, priority 2009, dated 2013).

Target: T1, PDK1 (Homo sapiens, UniProt O15530)
T1 construct: His6 (N)
T1 sequence (O15530 51-556 limits assumed): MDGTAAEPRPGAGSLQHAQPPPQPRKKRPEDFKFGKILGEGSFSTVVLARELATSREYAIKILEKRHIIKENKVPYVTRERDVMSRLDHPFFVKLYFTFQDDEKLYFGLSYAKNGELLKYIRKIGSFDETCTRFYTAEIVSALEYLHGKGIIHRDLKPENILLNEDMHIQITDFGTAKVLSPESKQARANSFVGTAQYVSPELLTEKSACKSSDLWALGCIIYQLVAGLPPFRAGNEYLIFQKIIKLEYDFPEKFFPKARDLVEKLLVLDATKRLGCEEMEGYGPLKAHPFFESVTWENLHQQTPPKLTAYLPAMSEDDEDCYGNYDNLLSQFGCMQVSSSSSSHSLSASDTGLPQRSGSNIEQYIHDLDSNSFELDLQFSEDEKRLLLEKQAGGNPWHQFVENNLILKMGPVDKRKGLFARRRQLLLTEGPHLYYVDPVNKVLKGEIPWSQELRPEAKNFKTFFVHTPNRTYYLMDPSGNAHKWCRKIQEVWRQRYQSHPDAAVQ
Experiment: Test for the inhibition of PDK1 (flashplate, 33P-ATP)
Type: biochemical
Conditions: His6-PDK1 3.4 nM, 4 μM ATP, 30° C., 60 min
Method: The experimental batches are carried out in a flashplate system with 384 wells/microtitration plate.
In each case, the PDK1 sample His6-PDK1(1-50)(3.4 nM), the PDK1 substrate biotin-bA-bA-[…] (400 nM), 4 μM ATP (with 0.2 μCi of ^33 P-ATP/well) and the test substance in 50 μl of conventional experimental solution per well are incubated at 30° C. for 60 min. The test substances are employed in corresponding concentrations (if desired in a dilution series). The control is carried out without test substance. The reaction is stopped using standard methods and washed. The activity of the kinase is measured via the incorporated radioactivity in top count. In order to determine the non-specific kinase reaction (blank value), the experimental batches are carried out in the presence of 100 nM staurosporin.
The radioactivity (decompositions per minute) of the blank value (no use of test substance in the presence of staurosporin) is subtracted from all other radioactivity values. The controls (kinase activity without test substance) are set equal to 100 percent and all other radioactivity values (after subtracting the blank value) are expressed set in relation thereto (for example in % of the control).
[formula] IC50 values (50% inhibition) are determined with the aid of statistics programmes, such as, for example, RS1.

| SMILES | IC50 [nM] |
| --- | --- |
| CC(O)(c1ccccc1)c1cc(-c2c[nH]c3ncc(-c4cnn(CCO)c4)cc23)nc(N)n1 (centres unmarked) [A99, 1-(2-amino-6-{5-[1-(2-hydroxyethyl)-1H-pyrazol-4-yl]-1H-pyrrolo[2,3-b]-pyridin-3-yl}pyrimidin-4-yl)-1-phenylethanol] | 41 |
| Cn1cc(-c2cnc3[nH]cc(-c4cc(C(C)(O)c5ccccc5F)nc(N)n4)c3c2)cn1 (racemic) [A102, 1-{2-amino-6-[5-(1-methyl-1H-pyrazol-4-yl)-1H-pyrrolo[2,3-b]pyridin-3-yl]-pyrimidin-4-yl}-1-(2-fluorophenyl)ethanol] | 10 |
| COCOC(C)(c1ccccc1)c1cc(-c2c[nH]c3ncc(-c4cnn(CCC(N)=O)c4)cc23)nc(N)n1 (centres unmarked) [A74, 3-(4-{3-[2-amino-6-(1-methoxymethoxy-1-phenylethyl)pyrimidin-4-yl]-1H-pyrrolo[2,3-b]pyridin-5-yl}pyrazol-1-yl)propionamide] | 68 |
| CO[C@@](C)(c1ccccc1)c1cc(-c2c[nH]c3ncc(-c4cnn(CCO)c4)cc23)nc(N)n1 (single isomer, unassigned) [A93] | 48 |
| CC(O)(c1ccccc1)c1cc(-c2c[nH]c3ncc(-c4cnn(Cc5cccs5)c4)cc23)nc(N)n1 (centres unmarked) [A47, 1-{2-amino-6-[5-(1-thiophen-2-ylmethyl-1H-pyrazol-4-yl)-1H-pyrrolo[2,3-b]-pyridin-3-yl]pyrimidin-4-yl}-1-phenylethanol] | 100 |
| CCOC(C)(c1ccccc1)c1cc(-c2c[nH]c3ncc(-c4cnn(C)c4)cc23)nc(N)n1 (centres unmarked) [A76, 4-(1-ethoxy-1-phenylethyl)-6-[5-(1-methyl-1H-pyrazol-4-yl)-1H-pyrrolo-[2,3-b]pyridin-3-yl]pyrimidin-2-ylamine] | 79 |
| COCOC(C)(c1ccccc1)c1cc(-c2c[nH]c3ncc(-c4cnn(CCC(=O)O)c4)cc23)nc(N)n1 (centres unmarked) [A77, 3-(4-{3-[2-amino-6-(1-methoxymethoxy-1-phenylethyl)pyrimidin-4-yl]-1H-pyrrolo[2,3-b]pyridin-5-yl}pyrazol-1-yl)propionic acid] | 43 |
| CCCC(C)(O)c1cc(-c2c[nH]c3ncc(-c4cnn(C(C)C)c4)cc23)nc(N)n1 (centres unmarked) [A87, 2-{2-amino-6-[5-(1-isopropyl-1H-pyrazol-4-yl)-1H-pyrrolo[2,3-b]pyridin-3-yl]-pyrimidin-4-yl}pentan-2-ol] | 16 |
| CC(O)(c1ccccc1)c1cc(-c2c[nH]c3ncc(-c4cnn(S(C)(=O)=O)c4)cc23)nc(N)n1 (centres unmarked) [A48, 1-{2-amino-6-[5-(1-methanesulfonyl-1H-pyrazol-4-yl)-1H-pyrrolo[2,3-b]pyridin-3-yl]pyrimidin-4-yl}-1-phenylethanol] | 140 |
| Cc1cccc(C(C)(O)c2cc(-c3c[nH]c4ncc(-c5cnn(CCO)c5)cc34)nc(N)n2)c1 (centres unmarked) [A94, 1-(2-amino-6-{5-[1-(2-hydroxyethyl)-1H-pyrazol-4-yl]-1H-pyrrolo[2,3-b]-pyridin-3-yl}pyrimidin-4-yl)-1-m-tolylethanol] | 60 |
| CC(O)(c1cccc(F)c1)c1cc(-c2c[nH]c3ncc(-c4cnn(CC(=O)N5CCCCC5)c4)cc23)nc(N)n1 (centres unmarked) [A59, 2-[4-(3-{2-amino-6-[1-(3-fluorophenyl)-1-hydroxyethyl]pyrimidin-4-yl}-1H-pyrrolo[2,3-b]pyridin-5-yl)pyrazol-1-yl]-1-piperidin-1-ylethanone] | 69 |
| CC(O)(c1ccccc1)c1cc(-c2c[nH]c3ncc(-c4cnn(CC5CC5)c4)cc23)nc(N)n1 (centres unmarked) [A83, 1-{2-amino-6-[5-(1-cyclopropylmethyl-1H-pyrazol-4-yl)-1H-pyrrolo[2,3-b]-pyridin-3-yl]pyrimidin-4-yl}-1-phenylethanol] | 59 |
| CC(O)(c1ccccc1)c1cc(-c2c[nH]c3ncc(Br)cc23)nc(N)n1 (centres unmarked) [A86, 1-[2-amino-6-(5-bromo-1H-pyrrolo[2,3-b]pyridin-3-yl)pyrimidin-4-yl]-1-phenylethanol] | 89 |
| CNc1nc(-c2c[nH]c3ncc(-c4cnn(CCO)c4)cc23)cc(C(C)(O)c2ccccc2)n1 (single isomer, unassigned) [A90, 1-(6-{5-[1-(2-hydroxyethyl)-1H-pyrazol-4-yl]-1H-pyrrolo[2,3-b]pyridin-3-yl}-2-methylaminopyrimidin-4-yl)-1-phenylethanol] | 21 |
| Cn1cc(-c2cnc3[nH]cc(-c4cc(C(C)(O)c5ccc(CO)cc5)nc(N)n4)c3c2)cn1 (centres unmarked) [A31, 1-{2-amino-6-[5-(1-methyl-1H-pyrazol-4-yl)-1H-pyrrolo[2,3-b]pyridin-3-yl]-pyrimidin-4-yl}-1-(4-hydroxymethylphenyl)ethanol] | 44 |
| CO[C@](C)(c1ccccc1)c1cc(-c2c[nH]c3ncc(-c4cnn(CCO)c4)cc23)nc(N)n1 (single isomer, unassigned) [A92] | 35 |
| COCOC(C)(c1cccc(F)c1)c1nc(N)nc(-c2c[nH]c3ncc(Br)cc23)c1F (centres unmarked) [A12, 4-(5-bromo-1H-pyrrolo[2,3-b]pyridin-3-yl)-5-fluoro-6-[1-(3-fluorophenyl)-1-methoxymethoxyethyl]pyrimidin-2-ylamine] | > 20000 |
| CC(O)(c1ccccc1)c1cc(-c2c[nH]c3ncc(-c4cnn(CCO)c4)cc23)nc(N)n1 (single isomer, unassigned) [A96, 1-(2-amino-6-{5-[1-(2-hydroxyethyl)-1H-pyrazol-4-yl]-1H-pyrrolo[2,3-b]-pyridin-3-yl}pyrimidin-4-yl)-1-phenylethanol] | 18 |
| CC[C@](OCOC)(c1cccc(F)c1)c1cc(-c2c[nH]c3ncc(Br)cc23)nc(N)n1 [A52, 4-(5-bromo-1H-pyrrolo[2,3-b]pyridin-3-yl)-6-[(S)-1-(3-fluorophenyl)-1-methoxymethoxypropyl]pyrimidin-2-ylamine] | > 30000 |
| COC(C)(c1ccccc1)c1cc(-c2c[nH]c3ncc(-c4cnn(CCO)c4)cc23)nc(N)n1 (centres unmarked) [A27, 2-(4-{3-[2-amino-6-(1-methoxy-1-phenylethyl)pyrimidin-4-yl]-1H-pyrrolo-[2,3-b]pyridin-5-yl}pyrazol-1-yl)ethanol] | 32 |

Further lines, results first:

| IC50 [nM] | SMILES |
| --- | --- |
| 28 | Cn1cc(-c2cnc3[nH]cc(-c4cc(C(C)(O)c5cccnc5)nc(N)n4)c3c2)cn1 (single isomer, unassigned) [A57, 1-{2-amino-6-[5-(1-methyl-1H-pyrazol-4-yl)-1H-pyrrolo[2,3-b]pyridin-3-yl]-pyrimidin-4-yl}-1-pyridin-3-ylethanol] |
| 56 | Cn1cc(-c2cnc3[nH]cc(-c4cc(C(C)(O)c5cccnc5)nc(N)n4)c3c2)cn1 (centres unmarked) [A24, 1-{2-amino-6-[5-(1-methyl-1H-pyrazol-4-yl)-1H-pyrrolo[2,3-b]pyridin-3-yl]-pyrimidin-4-yl}-1-pyridin-3-ylethanol] |
| 55 | CC[C@@](O)(c1ccncc1)c1cc(-c2c[nH]c3ncc(-c4cnn(CC(=O)N5CCCCC5)c4)cc23)nc(N)n1 [A46, 2-(4-{3-[2-amino-6-((R)-1-hydroxy-1-pyridin-4-ylpropyl)pyrimidin-4-yl]-1H-pyrrolo[2,3-b]pyridin-5-yl}pyrazol-1-yl)-1-piperidin-1-ylethanone] |
| 17 | CCC(O)(c1ccncc1)c1cc(-c2c[nH]c3ncc(-c4cn[nH]c4)cc23)nc(N)n1 (single isomer, unassigned) [A44, 1-{2-amino-6-[5-(1H-pyrazol-4-yl)-1H-pyrrolo[2,3-b]pyridin-3-yl]pyrimidin-4-yl}-1-pyridin-4-ylpropan-1-ol] |
| 3.3 | Cn1cc(-c2cnc3[nH]cc(-c4cc(C(C)(O)c5ccncc5)nc(N)n4)c3c2)cn1 (centres unmarked) [A64, 1-{2-amino-6-[5-(1-methyl-1H-pyrazol-4-yl)-1H-pyrrolo[2,3-b]pyridin-3-yl]-pyrimidin-4-yl}-1-pyridin-4-ylethanol] |
| 85 | Cn1cc(-c2cnc3[nH]cc(-c4cc(C(C)(O)c5cccnc5)nc(N)n4)c3c2)cn1 (single isomer, unassigned) [A58, 1-{2-amino-6-[5-(1-methyl-1H-pyrazol-4-yl)-1H-pyrrolo[2,3-b]pyridin-3-yl]-pyrimidin-4-yl}-1-pyridin-3-ylethanol] |
| 6.9 | CCC(O)(c1ccncc1)c1cc(-c2c[nH]c3ncc(-c4cnn(C)c4)cc23)nc(N)n1 (centres unmarked) [A28, 1-{2-amino-6-[5-(1-methyl-1H-pyrazol-4-yl)-1H-pyrrolo[2,3-b]pyridin-3-yl]-pyrimidin-4-yl}-1-pyridin-4-ylpropan-1-ol] |
| 2.8 | CC(O)(c1ccncc1)c1cc(-c2c[nH]c3ncc(-c4cn[nH]c4)cc23)nc(N)n1 (centres unmarked) [A62, 1-{2-amino-6-[5-(1H-pyrazol-4-yl)-1H-pyrrolo[2,3-b]pyridin-3-yl]pyrimidin-4-yl}-1-pyridin-4-ylethanol] |
| 150 | COCOC(C)(c1ccncc1)c1cc(-c2c[nH]c3ncc(Br)cc23)nc(N)n1 (centres unmarked) [A56, 4-(5-bromo-1H-pyrrolo[2,3-b]pyridin-3-yl)-6-(1-methoxymethoxy-1-pyridin-4-ylethyl)pyrimidin-2-ylamine] |
